# Measurements reported in paper doi:10.1101/2021.09.30.462449v1 (biorxiv, 2021).
# What was measured:
# Assay in all cases: biochemical
# Conditions in all cases: read-out: % inhibition mean (Z'Lyte)
# GRK4 = GRK4 (Homo sapiens, UniProt P32298)
# PAK1 = PAK1 (Homo sapiens, UniProt Q13153)
# EGFR (ErbB1) L858R = EGFR (ErbB1) L858R (Homo sapiens, UniProt P00533, L858R)
# JAK2 = JAK2 (Homo sapiens, UniProt O60674)
# NTRK2 (TRKB) = NTRK2 (TRKB) (Homo sapiens, UniProt Q16620)
# CSNK1D (CK1 delta) = CSNK1D (CK1 delta) (Homo sapiens, UniProt P48730)
# PIM1 = PIM1 (Homo sapiens, UniProt P11309)
# EGFR (ErbB1) G719S = EGFR (ErbB1) G719S (Homo sapiens, UniProt P00533, G719S)
# STK3 (MST2) = STK3 (MST2) (Homo sapiens, UniProt Q13188)
# ADRBK1 (GRK2) = ADRBK1 (GRK2) (Homo sapiens, UniProt P25098)
# MST4 = MST4 (Homo sapiens, UniProt Q9P289)
# PTK6 (Brk) = PTK6 (Brk) (Homo sapiens, UniProt Q13882)
# GRK6 = GRK6 (Homo sapiens, UniProt P43250)
# HIPK4 = HIPK4 (Homo sapiens, UniProt Q8NE63)
# STK24 (MST3) = STK24 (MST3) (Homo sapiens, UniProt Q9Y6E0)
# CAMK2B (CaMKII beta) = CAMK2B (CaMKII beta) (Homo sapiens, UniProt Q13554)
# MET (cMet) Y1235D = MET (cMet) Y1235D (Homo sapiens, UniProt P08581, Y1235D)
# MARK3 = MARK3 (Homo sapiens, UniProt P27448)
# PAK4 = PAK4 (Homo sapiens, UniProt O96013)
# NEK4 = NEK4 (Homo sapiens, UniProt P51957)
# ROCK1 = ROCK1 (Homo sapiens, UniProt Q13464)
# ERBB2 (HER2) = ERBB2 (HER2) (Homo sapiens, UniProt P04626)
# CSNK1A1 (CK1 alpha 1) = CSNK1A1 (CK1 alpha 1) (Homo sapiens, UniProt P48729)
# FYN = FYN (Homo sapiens, UniProt P06241)
# IKBKE (IKK epsilon) = IKBKE (IKK epsilon) (Homo sapiens, UniProt Q14164)
# CAMK2A (CaMKII alpha) = CAMK2A (CaMKII alpha) (Homo sapiens, UniProt Q9UQM7)
# PIM2 = PIM2 (Homo sapiens, UniProt Q9P1W9)
# FER = FER (Homo sapiens, UniProt P16591)
# RET V804E = RET V804E (Homo sapiens, UniProt P07949, V804E)
# Chain of RET V804E (P07949 whole entry V804E): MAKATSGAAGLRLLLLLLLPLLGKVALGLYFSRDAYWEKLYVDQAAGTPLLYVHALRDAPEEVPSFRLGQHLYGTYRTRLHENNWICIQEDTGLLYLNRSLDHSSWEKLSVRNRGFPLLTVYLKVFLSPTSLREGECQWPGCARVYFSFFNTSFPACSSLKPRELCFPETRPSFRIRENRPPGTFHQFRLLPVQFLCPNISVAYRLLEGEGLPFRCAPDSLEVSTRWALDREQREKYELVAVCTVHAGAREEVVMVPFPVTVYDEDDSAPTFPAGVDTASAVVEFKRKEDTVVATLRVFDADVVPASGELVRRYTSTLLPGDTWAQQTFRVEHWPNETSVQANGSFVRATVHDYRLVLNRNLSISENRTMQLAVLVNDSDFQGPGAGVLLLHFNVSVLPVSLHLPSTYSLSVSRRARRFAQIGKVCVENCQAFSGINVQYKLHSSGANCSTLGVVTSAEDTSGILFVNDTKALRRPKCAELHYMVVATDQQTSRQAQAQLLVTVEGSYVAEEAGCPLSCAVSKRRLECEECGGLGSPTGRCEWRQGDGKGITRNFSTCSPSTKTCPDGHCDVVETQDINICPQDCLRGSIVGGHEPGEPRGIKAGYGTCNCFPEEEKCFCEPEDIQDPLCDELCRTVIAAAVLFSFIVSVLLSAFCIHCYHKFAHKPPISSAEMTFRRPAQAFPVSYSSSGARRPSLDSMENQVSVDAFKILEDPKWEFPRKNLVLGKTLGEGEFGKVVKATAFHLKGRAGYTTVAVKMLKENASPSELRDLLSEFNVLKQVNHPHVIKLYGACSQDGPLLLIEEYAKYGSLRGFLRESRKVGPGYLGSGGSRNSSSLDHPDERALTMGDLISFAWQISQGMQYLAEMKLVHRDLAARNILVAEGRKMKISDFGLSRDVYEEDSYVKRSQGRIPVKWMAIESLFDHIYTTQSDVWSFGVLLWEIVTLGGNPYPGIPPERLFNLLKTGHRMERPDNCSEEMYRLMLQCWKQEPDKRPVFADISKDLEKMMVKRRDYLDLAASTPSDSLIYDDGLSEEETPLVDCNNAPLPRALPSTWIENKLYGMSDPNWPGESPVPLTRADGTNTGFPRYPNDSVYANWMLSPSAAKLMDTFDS
# Chain of GRK4 (P32298 whole entry): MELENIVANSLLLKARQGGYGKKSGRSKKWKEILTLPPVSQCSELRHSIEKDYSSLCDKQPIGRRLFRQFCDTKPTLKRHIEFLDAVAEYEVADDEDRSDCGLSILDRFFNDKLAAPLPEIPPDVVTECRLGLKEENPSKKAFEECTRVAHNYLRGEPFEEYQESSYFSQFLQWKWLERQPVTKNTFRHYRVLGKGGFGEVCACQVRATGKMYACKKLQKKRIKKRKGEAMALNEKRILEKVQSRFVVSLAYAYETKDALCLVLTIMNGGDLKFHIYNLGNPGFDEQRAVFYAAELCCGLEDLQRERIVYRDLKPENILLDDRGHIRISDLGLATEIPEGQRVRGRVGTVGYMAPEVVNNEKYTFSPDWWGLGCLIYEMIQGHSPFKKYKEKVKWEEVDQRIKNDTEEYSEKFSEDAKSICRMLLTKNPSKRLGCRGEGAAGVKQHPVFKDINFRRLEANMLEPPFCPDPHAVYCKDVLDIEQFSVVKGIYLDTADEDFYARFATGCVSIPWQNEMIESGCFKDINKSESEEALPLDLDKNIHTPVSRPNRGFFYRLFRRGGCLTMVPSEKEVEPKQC
# Chain of PIM2 (Q9P1W9 whole entry): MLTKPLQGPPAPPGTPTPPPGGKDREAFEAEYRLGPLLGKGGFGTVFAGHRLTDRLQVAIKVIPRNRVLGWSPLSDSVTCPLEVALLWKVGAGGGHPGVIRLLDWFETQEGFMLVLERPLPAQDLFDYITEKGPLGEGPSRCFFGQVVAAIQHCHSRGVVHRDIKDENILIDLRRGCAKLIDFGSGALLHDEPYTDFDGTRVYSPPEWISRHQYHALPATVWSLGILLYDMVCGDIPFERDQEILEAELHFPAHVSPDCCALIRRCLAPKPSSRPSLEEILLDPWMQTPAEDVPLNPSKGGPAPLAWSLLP
# Chain of HIPK4 (Q8NE63 whole entry): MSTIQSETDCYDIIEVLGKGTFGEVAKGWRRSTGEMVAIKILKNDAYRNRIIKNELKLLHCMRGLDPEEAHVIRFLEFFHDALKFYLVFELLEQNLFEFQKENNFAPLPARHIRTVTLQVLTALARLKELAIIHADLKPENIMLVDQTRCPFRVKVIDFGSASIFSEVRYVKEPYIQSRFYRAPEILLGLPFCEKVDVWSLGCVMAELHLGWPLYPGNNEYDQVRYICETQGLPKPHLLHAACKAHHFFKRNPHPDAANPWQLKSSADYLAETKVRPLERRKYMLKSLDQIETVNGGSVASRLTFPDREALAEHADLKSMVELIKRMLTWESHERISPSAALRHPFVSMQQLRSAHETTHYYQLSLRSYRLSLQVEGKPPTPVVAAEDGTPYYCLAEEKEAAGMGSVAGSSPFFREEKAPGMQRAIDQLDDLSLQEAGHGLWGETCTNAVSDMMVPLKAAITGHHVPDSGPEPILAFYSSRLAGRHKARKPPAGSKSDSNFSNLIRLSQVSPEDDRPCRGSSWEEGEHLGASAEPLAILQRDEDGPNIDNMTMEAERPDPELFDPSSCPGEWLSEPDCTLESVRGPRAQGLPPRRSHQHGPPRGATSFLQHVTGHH
# Chain of FER (P16591 whole entry): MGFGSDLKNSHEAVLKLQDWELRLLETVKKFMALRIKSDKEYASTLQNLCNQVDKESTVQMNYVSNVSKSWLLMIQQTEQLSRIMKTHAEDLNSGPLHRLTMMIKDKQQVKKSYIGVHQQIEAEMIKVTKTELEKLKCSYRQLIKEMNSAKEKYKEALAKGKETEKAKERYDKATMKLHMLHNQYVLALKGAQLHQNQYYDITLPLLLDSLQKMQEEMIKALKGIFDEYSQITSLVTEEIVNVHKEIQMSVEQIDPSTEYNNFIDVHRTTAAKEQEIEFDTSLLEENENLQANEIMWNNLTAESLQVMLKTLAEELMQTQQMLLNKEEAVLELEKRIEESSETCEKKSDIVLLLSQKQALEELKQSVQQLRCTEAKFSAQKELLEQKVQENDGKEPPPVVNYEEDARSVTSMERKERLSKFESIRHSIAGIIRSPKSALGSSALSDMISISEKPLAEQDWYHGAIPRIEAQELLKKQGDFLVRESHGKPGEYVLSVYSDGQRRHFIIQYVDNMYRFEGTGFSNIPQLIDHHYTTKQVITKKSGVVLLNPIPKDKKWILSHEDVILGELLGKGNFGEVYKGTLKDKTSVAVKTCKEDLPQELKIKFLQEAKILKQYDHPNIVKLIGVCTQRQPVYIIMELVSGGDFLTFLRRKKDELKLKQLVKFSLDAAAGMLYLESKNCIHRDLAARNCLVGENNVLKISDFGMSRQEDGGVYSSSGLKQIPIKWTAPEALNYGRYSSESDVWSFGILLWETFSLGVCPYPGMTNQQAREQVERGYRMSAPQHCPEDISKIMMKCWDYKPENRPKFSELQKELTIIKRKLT
# Chain of EGFR (ErbB1) G719S (P00533 whole entry G719S): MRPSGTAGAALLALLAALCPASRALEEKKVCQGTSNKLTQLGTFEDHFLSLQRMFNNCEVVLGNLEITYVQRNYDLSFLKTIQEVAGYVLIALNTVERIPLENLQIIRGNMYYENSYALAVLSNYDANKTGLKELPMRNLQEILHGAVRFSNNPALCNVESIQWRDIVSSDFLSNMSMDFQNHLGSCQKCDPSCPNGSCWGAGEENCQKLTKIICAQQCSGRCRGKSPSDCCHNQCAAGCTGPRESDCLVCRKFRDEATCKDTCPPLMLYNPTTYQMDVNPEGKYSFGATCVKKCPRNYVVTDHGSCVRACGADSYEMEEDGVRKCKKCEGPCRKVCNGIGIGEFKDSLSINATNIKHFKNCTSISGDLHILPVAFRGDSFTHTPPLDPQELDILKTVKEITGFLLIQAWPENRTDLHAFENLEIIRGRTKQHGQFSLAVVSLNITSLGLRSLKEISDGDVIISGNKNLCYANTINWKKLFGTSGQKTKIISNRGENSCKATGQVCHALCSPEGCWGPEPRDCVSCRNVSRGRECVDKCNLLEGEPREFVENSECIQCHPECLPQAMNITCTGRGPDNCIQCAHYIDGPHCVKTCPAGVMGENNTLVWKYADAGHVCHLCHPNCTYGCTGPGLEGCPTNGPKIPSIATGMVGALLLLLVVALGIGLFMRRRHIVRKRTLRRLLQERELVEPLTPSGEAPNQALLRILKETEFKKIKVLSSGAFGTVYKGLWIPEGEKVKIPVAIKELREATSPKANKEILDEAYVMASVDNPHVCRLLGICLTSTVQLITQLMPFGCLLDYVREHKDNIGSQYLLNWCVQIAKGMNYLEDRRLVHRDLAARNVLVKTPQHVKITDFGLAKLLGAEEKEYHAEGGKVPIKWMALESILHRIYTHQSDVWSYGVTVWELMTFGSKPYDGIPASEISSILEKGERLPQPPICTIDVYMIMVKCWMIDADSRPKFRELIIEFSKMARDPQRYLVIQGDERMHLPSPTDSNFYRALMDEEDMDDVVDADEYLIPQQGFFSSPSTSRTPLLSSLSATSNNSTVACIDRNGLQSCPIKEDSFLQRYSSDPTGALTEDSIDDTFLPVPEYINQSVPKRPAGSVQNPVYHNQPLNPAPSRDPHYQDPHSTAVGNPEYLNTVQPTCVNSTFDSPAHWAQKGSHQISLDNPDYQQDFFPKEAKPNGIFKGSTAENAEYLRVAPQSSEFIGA
# Chain of CSNK1D (CK1 delta) (P48730 whole entry): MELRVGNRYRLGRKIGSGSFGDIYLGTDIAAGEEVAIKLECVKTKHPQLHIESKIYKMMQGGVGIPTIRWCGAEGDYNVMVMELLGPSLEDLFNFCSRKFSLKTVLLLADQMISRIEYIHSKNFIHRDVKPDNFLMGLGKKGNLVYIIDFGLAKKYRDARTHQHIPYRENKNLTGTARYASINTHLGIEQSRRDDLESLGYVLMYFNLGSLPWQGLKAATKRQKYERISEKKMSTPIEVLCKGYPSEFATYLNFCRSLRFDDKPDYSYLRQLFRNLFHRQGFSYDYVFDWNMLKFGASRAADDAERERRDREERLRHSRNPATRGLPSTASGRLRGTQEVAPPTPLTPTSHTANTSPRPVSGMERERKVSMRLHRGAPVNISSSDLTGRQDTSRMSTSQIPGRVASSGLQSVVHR
structure (smiles),measurement,setting,value
"COc1ccc2nc3cc(Cl)ccc3c(Nc3cc(CN4CCCC4)c(O)c(CN4CCCC4)c3)c2n1 [Pyronaridine, 4-[(7-Chloro-2-methoxybenzo[b][1,5]naphthyridin-10-yl)amino]-2,6-bis(1-pyrrolidinylmethyl)phenol phosphate (1:4)]",inhibition at 1 µM,GRK4,25%
same,inhibition at 1 µM,PAK1,6%
same,inhibition at 1 µM,EGFR (ErbB1) L858R,5%
same,inhibition at 1 µM,JAK2,4%
same,inhibition at 1 µM,NTRK2 (TRKB),1%
same,inhibition at 1 µM,CSNK1D (CK1 delta),5%
same,inhibition at 1 µM,PIM1,8%
same,inhibition at 1 µM,EGFR (ErbB1) G719S,-5%
same,inhibition at 1 µM,STK3 (MST2),-2%
same,inhibition at 1 µM,ADRBK1 (GRK2),-3%
same,inhibition at 1 µM,MST4,1%
same,inhibition at 1 µM,PTK6 (Brk),-4%
same,inhibition at 1 µM,GRK6,-1%
same,inhibition at 1 µM,HIPK4,5%
same,inhibition at 1 µM,STK24 (MST3),4%
same,inhibition at 1 µM,CAMK2B (CaMKII beta),1%
same,inhibition at 1 µM,MET (cMet) Y1235D,4%
same,inhibition at 1 µM,MARK3,2%
same,inhibition at 1 µM,PAK4,3%
same,inhibition at 1 µM,NEK4,4%
same,inhibition at 1 µM,ROCK1,2%
same,inhibition at 1 µM,ERBB2 (HER2),2%
same,inhibition at 1 µM,CSNK1A1 (CK1 alpha 1),5%
same,inhibition at 1 µM,FYN,2%
same,inhibition at 1 µM,IKBKE (IKK epsilon),2%
same,inhibition at 1 µM,CAMK2A (CaMKII alpha),4%
same,inhibition at 1 µM,PIM2,-4%
same,inhibition at 1 µM,FER,-21%
same,inhibition at 1 µM,RET V804E,2%
